Test results published in US7202035B2, “Genetic markers for skatole metabolism” (University of Guelph, priority 1999, dated 2007).
Where “and” joins values, the source holds several entries; their conditions need not be identical. Equal values may be shown once. Entries after “also recorded” stand apart in the source; their conditions may differ.

Experiments:
[1] = Microsomal incubations of 3MI: production of 3MI metabolites by pig liver microsomes (HPLC); format: in vitro ADME; details: for Maximum rate of production: highest of 30 pig liver microsome samples; for Minimum rate of production: lowest of 30 pig liver microsome samples; for Rate of Production (pmol/mg prot./min) ±SD: metabolite formed from 0.4 mM 3MI, mean ±SD, n = 30
Description: Preparation of microsomes.
Microsomal incubations. […] C. (production of metabolites was determined to be linear over a range of 10 to 40 min). Incubation volumes were 0.5 ml. Reactions were started by the addition of NADPH after 3-minute preincubation periods at 37° C., and stopped with 0.5 ml of ice-cold acetonitrile. Incubations of all 30 samples were run in duplicate and for control incubations NADPH was omitted. […] A 50 μl aliquot of the clear supernatant was analyzed by high-performance liquid chromatography (HPLC).
Analytical chromatography. […] Absorbance was monitored at 250 nm; fluorescence was monitored at excitation and emission wavelengths of 286 and 350 nm, respectively. HPLC analysis for 3MI metabolites was conducted immediately after the incubations. Metabolites were identified by comparison of retention times, and co-injection of standards (spiking the metabolite mixture with authentic standards).

[2] = rat liver microsomes incubated with 3-MI; cited from earlier work
aldehyde oxidase [3] = assay: Hepatic aldehyde oxidase activity measured as formation of HMOI from HMI by cytosol; format: in vitro ADME, pig
Description: Preparation of porcine liver cytosol.
Chromatographic analysis. […] Absorbance was monitored at 250 nm.

[4] = Measurement of 3MI fat content in backfat (colorimetric assay); format: in vivo, pig
Description: Measurement of 3MI fat content. For the quantitation of the 3MI fat content, a sample of backfat was taken from each pig and its 3MI content measured with a colorimetric assay (Mortensen and Sorensen, 1984). All analysis were done in duplicate.

[5] = Skatole level in backfat of CYP2A6 deletion mutant and wild type pigs (colorimetric assay); format: in vivo, pig; details: sample with CYP2A6 deletion mutation
Description: A backfat sample was collected at the midline point of 11th rib and frozen at −20° C. until assayed for skatole. The skatole content was measured with a colorimetric assay, according to the method described by Gonzalo et al. (2000).

[6] = Stability of isolated UV-1 in acetonitrile:water solution at room temperature (HPLC at 7-day intervals); format: physicochemical
Description: UV Spectroscopy. The UV spectrum of the metabolites identified on the basis of their retention times on HPLC (HMOI, 3MOI, I3C, and 2-aminoacetophenone) were identical to those of authentic standards. Spectra of metabolites were recorded using water as solvent, and the wavelengths of maximal absorption were as follows: HMOI: λmax (nm): 208, 253; 3MOI: λmax (nm): 205, 252; I3C: λmax (nm): 221, 278; 2-aminoacetophenone: λmax (nm): 228, 257. The UV spectrum of 3-methylindole was: λmax (nm): 224, 281. The UV spectrum of UV-1 metabolite was: λmax (nm): 204, 238. […] Isolated UV-1 was kept in acetonitrile:water solution at room temperature and the solution was analyzed by HPLC at 7-day intervals for 6 weeks. After 6 weeks only about 25% of the original compound remained and it was observed that UV-1 was converted into 3MOI.

aldehyde oxidase [7] = details: up to 1.0 mM in the assay mixture
aldehyde oxidase [8] = assay: in vitro; details: male, pig, porcine liver cytosol, pH 7.4, probe HMI (conversion to HMOI)

| Structure (SMILES) | Maximum rate of production [1] [pmol/mg prot./min] | Minimum rate of production [1] [pmol/mg prot./min] | Rate of Production (pmol/mg prot./min) ±SD ([1]; pig liver microsomes) | Percentage of all 3MI metabolites produced (average) ([1]; pig liver microsomes) [%] | other results |
| --- | --- | --- | --- | --- | --- |
| NCC(=O)c1ccccc1 [2-aminoacetophenone] | 12.7 | 3.4 | 7.8 ± 2.4 pmol/mg prot./min | 0.5 | Percentage of the metabolites formed [2]: 12% |
| O=CNCC(=O)c1ccccc1 [2-formamidoacetophenone] |  |  |  |  | Percentage of the metabolites formed [2]: 33% |
| CC1(O)C(=O)Nc2ccccc21 (centres unmarked) [3-hydroxy-3-methyloxindole] | 516.5 | 118.9 | 272.4 ± 91.6 pmol/mg prot./min | 18.5 | Mean aldehyde oxidase activity (nmol HMOI/mg prot./min) (aldehyde oxidase [3]; High accumulator pigs, n 7): 0.80 nmol HMOI/mg prot./min; Mean aldehyde oxidase activity (nmol HMOI/mg prot./min) (aldehyde oxidase [3]; Low accumulator pigs, n 8): 2.73 nmol HMOI/mg prot./min; Mean aldehyde oxidase activity (nmol HMOI/mg prot./min) (aldehyde oxidase [3]; Moderate accumulator pigs, n 15): 1.40 nmol HMOI/mg prot./min; AO activity, mean (aldehyde oxidase [3]; all samples, 30 pigs): 1.27 nmol HMOI/mg protein/min; AO activity, range (aldehyde oxidase [3]; all samples, 30 pigs): 0.25 to 3.53 nmol HMOI/mg protein/min |
| Cc1c[nH]c2ccccc12 [3-methylindole] |  |  |  |  | Mean 3-methylindole content (mg/kg) in fat ([4]; High accumulator pigs (0.2 mg/kg or more), n 7): 0.24 mg/kg; Mean 3-methylindole content (mg/kg) in fat ([4]; Low accumulator pigs (0.1 mg/kg or less), n 8): 0.09 mg/kg; Mean 3-methylindole content (mg/kg) in fat ([4]; Moderate accumulator pigs (0.11–0.19 mg/kg), n 15): 0.15 mg/kg; 3MI fat content, mean ([4]; all samples, 30 pigs): 0.15 mg/kg; 3MI fat content, range ([4]; all samples, 30 pigs): 0.07 to 0.3 mg/kg; Skatole level in fat versus wild type samples [5]: much higher |
| CC1C(=O)Nc2ccccc21 (centres unmarked) [3-methyloxindole] | 700.8 | 234.4 | 420.9 ± 118.1 pmol/mg prot./min | 27.9 | Percentage of the metabolites formed [2]: 5% |
| Cc1c[nH]c2ccc(O)cc12 [5-OH-3-methylindole] | 27.3 | 0.7 | 5.1 ± 5.8 pmol/mg prot./min | 0.3 | Rate of Production (pmol/mg prot./min) ±SD ([1]; pig liver microsomes, listed as 5-OH-3MI): 5.1 pmol/mg prot./min |
| Cc1c[nH]c2cc(O)ccc12 [6-OH-3-methylindole, 6-OH-3-methylindole] | 213.7 |  | 58.4 ± 47.2 pmol/mg prot./min | 4.9 | Average rate of production relative to the 5 isomer ([1]; 6-OH-3MI versus 5-OH-3MI, pig liver microsomes): approximately eleven times greater |
| OCc1c[nH]c2ccccc12 [Indole-3-carbinol, indole-3-carbinol] | 85.7 | 12.1 | 37.1 ± 15.8 pmol/mg prot./min |  |  |
| CC1(O)C=Nc2ccccc21 (centres unmarked) [UV-1, 3-hydroxy-3-methylindolenine] | 1556.3 | 180.5 | 750.7 pmol/mg prot./min and 750.7 ± 414.5 pmol/mg prot./min | 45.1 | Stability (in words) [6]: unstable compound; Original compound remaining ([6]; acetonitrile:water solution, room temperature, after 6 weeks, converted into 3MOI): about 25% |
| Oc1ncnc2[nH]ncc12 [allopurinol] |  |  |  |  | Effect on the conversion of HMI to HMOI (aldehyde oxidase [7]): did not affect; also recorded: lack of inhibition |
| CCN(CC)CCCC(C)Nc1c2ccc(Cl)cc2nc2ccc(OC)cc12 (centres unmarked) [quinacrine] |  |  |  |  | activity at 10 min, 50 µM (aldehyde oxidase [8]): 75.5%; activity at 10 min, 1 mM (aldehyde oxidase [8]): 43.4% |
